Where two headings read alike, the source gives them in different places.
What was measured:
Assay type in all cases: biochemical
[1] = target: recombinant human MMP-12 catalytic domain (Homo sapiens (Human), UniProt P39900); test: MMP-12 inhibitory assay (fluorogenic substrate cleavage)
Experimental: (§1) The inhibitory effect of compounds on the rate of cleaving fluorogenic MMP substrate (Enzo, BML-P128) by recombinant human MMP-12 catalytic domain (Enzo, BML-SE138) was carried out by methods known in the art. Briefly, to each well of a 96-well black opaque plate, all the reagents were sequentially added by pipetting, and the final reaction contained 4 nM of recombinant human MMP-12 catalytic domain, 4 μM of fluorogenic MMP substrate, and various concentrations (0.15 nM to 10,000 nM) of tested compound dilutions in HEPES buffer (pH 7.5) containing 10 mM of CaCl2, 0.01% Brij® 35 (polyoxyethylene (23) lauryl ether), and 0.1 mg/ml of BSA.
(§2) The enzyme and compounds were pre-incubated on a shaker to mix in wells. After an hour of mixing, fluorogenic substrate was added to each well. Reaction without enzyme was used as a blank control in the plate. The plate was then fed into a plate reader to measure fluorescence intensity at Excitation/Emission wavelengths of 340 nm/440 nm every 10 mins for at least 1 hour at 37° C. The IC50 of each compound in MMP-12 inhibition was determined by using a readout obtained at time point 30 minutes.

recombinant human MMP-1 = recombinant human MMP-1 (Homo sapiens (Human), UniProt P03956); test: MMP selectivity assay MMP-1
Sequence of recombinant human MMP-1 (P03956 100-469): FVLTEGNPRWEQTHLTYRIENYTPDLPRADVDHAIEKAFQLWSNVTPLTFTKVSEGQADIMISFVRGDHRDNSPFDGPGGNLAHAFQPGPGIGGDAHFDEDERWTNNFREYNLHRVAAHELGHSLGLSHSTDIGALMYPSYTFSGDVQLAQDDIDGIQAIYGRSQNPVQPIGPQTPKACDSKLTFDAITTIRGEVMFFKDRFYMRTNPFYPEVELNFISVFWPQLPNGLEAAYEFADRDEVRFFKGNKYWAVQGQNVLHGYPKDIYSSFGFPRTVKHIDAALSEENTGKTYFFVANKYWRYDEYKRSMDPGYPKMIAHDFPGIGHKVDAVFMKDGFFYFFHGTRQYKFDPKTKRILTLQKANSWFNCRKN
Experimental: as §1, §2
(§3) The MMP selectivity assay was performed by using other recombinant human MMPs, including MMP-1, MMP-2, MMP-3, MMP-7, MMP-8, MMP-9, MMP-10, MMP-13, and MMP-14. The IC50 of the compounds for the other recombinant human MMPs was determined as described above in Example 1, and are shown in Table 2.

recombinant human MMP-2 = recombinant human MMP-2 (Homo sapiens (Human), UniProt P08253); test: MMP selectivity assay MMP-2
Sequence of recombinant human MMP-2 (P08253 110-660): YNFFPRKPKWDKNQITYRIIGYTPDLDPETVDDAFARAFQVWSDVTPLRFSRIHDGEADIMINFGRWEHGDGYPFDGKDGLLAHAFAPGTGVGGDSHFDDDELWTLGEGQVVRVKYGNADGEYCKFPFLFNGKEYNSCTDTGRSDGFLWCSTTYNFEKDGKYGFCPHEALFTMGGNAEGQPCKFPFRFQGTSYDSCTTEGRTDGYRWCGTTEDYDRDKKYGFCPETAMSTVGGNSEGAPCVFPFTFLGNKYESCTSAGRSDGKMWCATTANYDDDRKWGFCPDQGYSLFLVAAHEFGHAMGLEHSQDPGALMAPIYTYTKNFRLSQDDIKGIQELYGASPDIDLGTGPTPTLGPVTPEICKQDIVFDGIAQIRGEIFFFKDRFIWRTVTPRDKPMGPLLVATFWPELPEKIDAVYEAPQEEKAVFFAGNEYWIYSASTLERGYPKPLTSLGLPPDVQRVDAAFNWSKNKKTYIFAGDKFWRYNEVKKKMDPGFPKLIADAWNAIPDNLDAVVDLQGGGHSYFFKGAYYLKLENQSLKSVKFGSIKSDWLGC
Experimental: as §1, §2, §3

recombinant human MMP-3 = recombinant human MMP-3 (Homo sapiens (Human), UniProt P08254); test: MMP selectivity assay MMP-3
Sequence of recombinant human MMP-3 (P08254 100-477): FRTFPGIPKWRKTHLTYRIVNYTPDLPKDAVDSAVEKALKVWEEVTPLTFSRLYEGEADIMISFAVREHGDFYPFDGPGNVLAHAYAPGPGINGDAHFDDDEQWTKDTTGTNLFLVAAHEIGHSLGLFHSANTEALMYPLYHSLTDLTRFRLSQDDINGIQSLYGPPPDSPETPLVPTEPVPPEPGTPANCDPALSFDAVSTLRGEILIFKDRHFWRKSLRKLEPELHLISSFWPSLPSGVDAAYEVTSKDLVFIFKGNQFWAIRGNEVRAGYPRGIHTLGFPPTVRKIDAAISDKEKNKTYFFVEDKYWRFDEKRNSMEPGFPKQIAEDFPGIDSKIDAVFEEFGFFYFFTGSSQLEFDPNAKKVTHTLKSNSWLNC
Experimental: as §1, §2, §3

recombinant human MMP-9 = recombinant human MMP-9 (Homo sapiens (Human), UniProt P14780); test: MMP selectivity assay MMP-9
Sequence of recombinant human MMP-9 (P14780 94-707): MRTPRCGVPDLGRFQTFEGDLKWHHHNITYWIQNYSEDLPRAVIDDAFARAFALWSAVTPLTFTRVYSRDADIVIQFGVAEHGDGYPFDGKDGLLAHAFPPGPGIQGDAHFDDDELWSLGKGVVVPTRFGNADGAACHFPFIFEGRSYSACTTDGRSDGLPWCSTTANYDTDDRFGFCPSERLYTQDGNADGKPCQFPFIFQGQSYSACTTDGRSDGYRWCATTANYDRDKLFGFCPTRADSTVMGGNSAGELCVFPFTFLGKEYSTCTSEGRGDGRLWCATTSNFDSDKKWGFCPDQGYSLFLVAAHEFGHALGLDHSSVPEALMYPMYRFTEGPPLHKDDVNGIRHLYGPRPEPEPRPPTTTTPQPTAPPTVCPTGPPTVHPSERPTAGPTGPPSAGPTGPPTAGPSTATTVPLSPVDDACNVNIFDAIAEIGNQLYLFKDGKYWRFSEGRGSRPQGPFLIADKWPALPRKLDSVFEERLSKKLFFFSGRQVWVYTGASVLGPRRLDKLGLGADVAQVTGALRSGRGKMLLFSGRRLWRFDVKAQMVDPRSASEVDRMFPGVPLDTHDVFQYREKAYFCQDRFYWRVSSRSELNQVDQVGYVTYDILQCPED
Experimental: as §1, §2, §3

recombinant human MMP-13 = recombinant human MMP-13 (Homo sapiens (Human), UniProt P45452); test: MMP selectivity assay MMP-13
Experimental: as §1, §2, §3

recombinant human MMP-14 = recombinant human MMP-14 (Homo sapiens (Human), UniProt P50281); test: MMP selectivity assay MMP-14
Experimental: as §1, §2, §3

Sequence of recombinant human MMP-12 catalytic domain (P39900 106-263): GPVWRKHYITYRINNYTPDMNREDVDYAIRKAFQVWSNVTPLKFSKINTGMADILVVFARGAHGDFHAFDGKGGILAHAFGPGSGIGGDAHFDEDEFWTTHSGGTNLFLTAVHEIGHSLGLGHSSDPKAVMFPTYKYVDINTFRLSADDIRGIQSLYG

Q: Which IC50 ([1]; Table 2 selectivity profile, read-out: MMP-12 activity (IC50)) does the source give for Cc1cc(COc2ccc(Sc3ccoc3C3NC(=O)NC3=O)cc2)ccn1 (centres unmarked) [FC-4] here?
A: Its IC50 is under 10 nM.

Q: And the IC50 ([1]; readout at 30 minutes, read-out: MMP-12 IC50)?
A: Its IC50 is under 10 nM.

Q: And the IC50 (recombinant human MMP-1)?
A: The IC50 was over 10000 nM.

Q: And the IC50 (recombinant human MMP-2)?
A: The IC50 was 100 to 1000 nM.

Q: What about the IC50 (recombinant human MMP-3) of the same molecule?
A: Its IC50 is 100 to 1000 nM.

Q: And the IC50 (recombinant human MMP-9)?
A: The IC50 was 100 to 1000 nM.

Q: And the IC50 (recombinant human MMP-13)?
A: The IC50 was 10 to 100 nM.

Q: And the IC50 (recombinant human MMP-14)?
A: The IC50 was 1000 to 10000 nM.

— patent US10851089B2, “Matrix metalloproteinase (MMP) inhibitors and methods of use thereof” (Foresee Pharmaceuticals Co., Ltd., priority 2018, dated 2020)
